system: COG-LL-319h; experiment: selective drug sensitivity score (sDSS, relative to normal bone marrow) (sDSS (score)); higher = more potent and effective on the cell line relative to normal bone marrow cells; settings: 72 h
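Note: ALL cell lines in 384-well plates, five doses spanning 10,000-fold, each plate scaled between vehicle and 100 µmol/L benzalkonium chloride controls, sDSS an adapted area-under-curve metric.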

Row | SMILES | selective drug sensitivity score
1 | Cn1nccc1Nc1nccc(-c2ccn([C@H](CO)c3ccc(Cl)c(F)c3)c(=O)c2)n1 [Ravoxertinib] (top concentration 10000 nM) | 10.2
2 | CC1=NN(c2ccc(C(=O)O)cc2)C(=O)C1=Cc1ccc(-c2cc(C)c(C)cc2[N+](=O)[O-])o1 [C646] (top concentration 25000 nM) | 11.7
3 | CC(C)c1cc(C(=O)N2Cc3ccc(CN4CCN(C)CC4)cc3C2)c(O)cc1O [Onalespib] (top concentration 2500 nM) | 7.92
4 | CCN1C(=O)CNc2ncc(-c3ccc(-c4nc[nH]n4)nc3C)nc21 [CC-115] (top concentration 10000 nM) | 11.7
5 | COc1cc(N2CCC(N3CCN(C)CC3)CC2)ccc1Nc1ncc(Cl)c(Nc2ccccc2P(C)(C)=O)n1 [Brigatinib] (top concentration 1000 nM) | 3.26
6 | CN1CCN(c2nc(C3=C(c4c[nH]c5ccccc45)C(=O)NC3=O)c3ccccc3n2)CC1 [Sotrastaurin] (top concentration 10000 nM) | 4.7
7 | CCN(CC)Cc1ccc2cc(COC(=O)Nc3ccc(C(=O)NO)cc3)ccc2c1 [Givinostat] (top concentration 1000 nM) | 10.1
8 | CNC(=O)c1cc(Oc2ccc(NC(=O)Nc3ccc(Cl)c(C(F)(F)F)c3)cc2)ccn1 [Sorafenib] (top concentration 1000 nM) | 0
9 | COc1ccc(S(=O)(=O)Nc2cccnc2Nc2ccc(O)cc2)cc1 [ABT-751] (top concentration 10000 nM) | 10.7
10 | C[C@@H](Oc1ccc2[nH]nc(/C=C/c3cnn(CCO)c3)c2c1)c1c(Cl)cncc1Cl (top concentration 1000 nM) | 4.66

system: KASUMI-2; experiment: as above; settings: 72 h

Row | SMILES | selective drug sensitivity score
11 | Cc1nc(Nc2ncc(C(=O)Nc3c(C)cccc3Cl)s2)cc(N2CCN(CCO)CC2)n1 [Dasatinib] (top concentration 1000 nM) | -2.8
12 | N[C@@H]1CCCN(c2c(/C=C3\SC(=O)NC3=O)cccc2-c2ccccc2)C1 [AZD1208] (top concentration 10000 nM) | -4.4
13 | CC(C)C[C@H](NC(=O)CNC(=O)c1cc(Cl)ccc1Cl)B(O)O [Ixazomib] (top concentration 1000 nM) | 4.66
14 | C=CC(=O)N1CCC[C@@H](n2nc(-c3ccc(Oc4ccccc4)cc3)c3c(N)ncnc32)C1 [Ibrutinib] (top concentration 1000 nM) | 0
15 | Cn1cnc2c(F)c(Nc3ccc(Br)cc3F)c(C(=O)NOCCO)cc21 [Binimetinib] (top concentration 1000 nM) | -2.22
16 | COc1cc(Nc2ncc(F)c(Nc3ccc4c(n3)N(COP(=O)(O)O)C(=O)C(C)(C)O4)n2)cc(OC)c1OC [Fostamatinib] (top concentration 2500 nM) | -2.84
17 | COc1cc2c(Oc3ccc(NC(=O)C4(C(=O)Nc5ccc(F)cc5)CC4)cc3F)ccnc2cc1OCCCN1CCOCC1 [Foretinib] (top concentration 1000 nM) | -2.96
18 | Sc1ncnc2nc[nH]c12 [Mercaptopurine] (top concentration 10000 nM) | 12.4
19 | COCCNCc1ccc(-c2cc3nccc(Oc4ccc(NC(=S)NC(=O)Cc5ccc(F)cc5)cc4F)c3s2)nc1 [Glesatinib] (top concentration 2500 nM) | 4.74
20 | Cn1nccc1Nc1nccc(-c2ccn([C@H](CO)c3ccc(Cl)c(F)c3)c(=O)c2)n1 [Ravoxertinib] (top concentration 10000 nM) | 4.2
21 | CC1=NN(c2ccc(C(=O)O)cc2)C(=O)C1=Cc1ccc(-c2cc(C)c(C)cc2[N+](=O)[O-])o1 [C646] (top concentration 25000 nM) | 15.1
22 | CC(C)c1cc(C(=O)N2Cc3ccc(CN4CCN(C)CC4)cc3C2)c(O)cc1O [Onalespib] (top concentration 2500 nM) | 7.72
23 | CCN1C(=O)CNc2ncc(-c3ccc(-c4nc[nH]n4)nc3C)nc21 [CC-115] (top concentration 10000 nM) | 5.74
24 | COc1cc(N2CCC(N3CCN(C)CC3)CC2)ccc1Nc1ncc(Cl)c(Nc2ccccc2P(C)(C)=O)n1 [Brigatinib] (top concentration 1000 nM) | -3.24
25 | CN1CCN(c2nc(C3=C(c4c[nH]c5ccccc45)C(=O)NC3=O)c3ccccc3n2)CC1 [Sotrastaurin] (top concentration 10000 nM) | 2.8
26 | CCN(CC)Cc1ccc2cc(COC(=O)Nc3ccc(C(=O)NO)cc3)ccc2c1 [Givinostat] (top concentration 1000 nM) | 10.6
27 | CNC(=O)c1cc(Oc2ccc(NC(=O)Nc3ccc(Cl)c(C(F)(F)F)c3)cc2)ccn1 [Sorafenib] (top concentration 1000 nM) | 0
28 | COc1ccc(S(=O)(=O)Nc2cccnc2Nc2ccc(O)cc2)cc1 [ABT-751] (top concentration 10000 nM) | 4.72
29 | C[C@@H](Oc1ccc2[nH]nc(/C=C/c3cnn(CCO)c3)c2c1)c1c(Cl)cncc1Cl (top concentration 1000 nM) | -7.04

system: CCRF-HSB2; experiment: as above; settings: 72 h

Row | SMILES | selective drug sensitivity score
30 | Cc1nc(Nc2ncc(C(=O)Nc3c(C)cccc3Cl)s2)cc(N2CCN(CCO)CC2)n1 [Dasatinib] (top concentration 1000 nM) | 37.8
31 | N[C@@H]1CCCN(c2c(/C=C3\SC(=O)NC3=O)cccc2-c2ccccc2)C1 [AZD1208] (top concentration 10000 nM) | 6.5
32 | CC(C)C[C@H](NC(=O)CNC(=O)c1cc(Cl)ccc1Cl)B(O)O [Ixazomib] (top concentration 1000 nM) | 8.86
33 | C=CC(=O)N1CCC[C@@H](n2nc(-c3ccc(Oc4ccccc4)cc3)c3c(N)ncnc32)C1 [Ibrutinib] (top concentration 1000 nM) | 7
34 | Cn1cnc2c(F)c(Nc3ccc(Br)cc3F)c(C(=O)NOCCO)cc21 [Binimetinib] (top concentration 1000 nM) | -0.32
35 | COc1cc(Nc2ncc(F)c(Nc3ccc4c(n3)N(COP(=O)(O)O)C(=O)C(C)(C)O4)n2)cc(OC)c1OC [Fostamatinib] (top concentration 2500 nM) | 4.46
36 | COc1cc2c(Oc3ccc(NC(=O)C4(C(=O)Nc5ccc(F)cc5)CC4)cc3F)ccnc2cc1OCCCN1CCOCC1 [Foretinib] (top concentration 1000 nM) | 6.24
37 | Sc1ncnc2nc[nH]c12 [Mercaptopurine] (top concentration 10000 nM) | 12.6
38 | COCCNCc1ccc(-c2cc3nccc(Oc4ccc(NC(=S)NC(=O)Cc5ccc(F)cc5)cc4F)c3s2)nc1 [Glesatinib] (top concentration 2500 nM) | 11.7
39 | Cn1nccc1Nc1nccc(-c2ccn([C@H](CO)c3ccc(Cl)c(F)c3)c(=O)c2)n1 [Ravoxertinib] (top concentration 10000 nM) | -1.2
40 | CC1=NN(c2ccc(C(=O)O)cc2)C(=O)C1=Cc1ccc(-c2cc(C)c(C)cc2[N+](=O)[O-])o1 [C646] (top concentration 25000 nM) | 3.14
41 | CC(C)c1cc(C(=O)N2Cc3ccc(CN4CCN(C)CC4)cc3C2)c(O)cc1O [Onalespib] (top concentration 2500 nM) | 7.32
42 | CCN1C(=O)CNc2ncc(-c3ccc(-c4nc[nH]n4)nc3C)nc21 [CC-115] (top concentration 10000 nM) | 2.64
43 | COc1cc(N2CCC(N3CCN(C)CC3)CC2)ccc1Nc1ncc(Cl)c(Nc2ccccc2P(C)(C)=O)n1 [Brigatinib] (top concentration 1000 nM) | -1.14
44 | CN1CCN(c2nc(C3=C(c4c[nH]c5ccccc45)C(=O)NC3=O)c3ccccc3n2)CC1 [Sotrastaurin] (top concentration 10000 nM) | 3.5
45 | CCN(CC)Cc1ccc2cc(COC(=O)Nc3ccc(C(=O)NO)cc3)ccc2c1 [Givinostat] (top concentration 1000 nM) | 4.5
46 | CNC(=O)c1cc(Oc2ccc(NC(=O)Nc3ccc(Cl)c(C(F)(F)F)c3)cc2)ccn1 [Sorafenib] (top concentration 1000 nM) | 0
47 | COc1ccc(S(=O)(=O)Nc2cccnc2Nc2ccc(O)cc2)cc1 [ABT-751] (top concentration 10000 nM) | 13
48 | C[C@@H](Oc1ccc2[nH]nc(/C=C/c3cnn(CCO)c3)c2c1)c1c(Cl)cncc1Cl (top concentration 1000 nM) | 3.86
